Reference: patent publication US20050044581A1, “Animals and cells containing a mutated alpha2/omega1 gene” (priority 2003, published 2005)

Tests used:
[1] = system: R217A knock-in and wild-type mice; assay: Chronic constriction injury (CCI)-induced static allodynia, von Frey hairs; assay type: in vivo, mouse; conditions: for efficacy in CCI-induced allodynia: 30-100mg/kg, p.o.; for effect on CCI-induced punctate allodynia: sub cutaneous 30-100mg/kg, FIG. 8
Text: Animals were placed in an anaesthetic chamber and anaesthetised with a 2% isofluorane O2 mixture. The right hind thigh is shaved and swabbed with 1% iodine. Animals were then transferred to a homeothermic blanket for the duration of the procedure and anaesthesia maintained during surgery via a nose cone. The skin was cut along the line of the thigh bone. The common sciatic nerve was exposed at the middle of the thigh by blunt dissection through biceps femoris. Proximal to the sciatic trifurcation, about 5mm of nerve was freed by inserting forceps under the nerve and the nerve gently lifted out of the thigh. The forceps were gently opened and closed several times to aid clearance of the fascia from the nerve. Suture was pulled under the nerve using forceps and tied in a simple knot until slight resistance was felt and then double knotted. The procedure was repeated until 3 ligatures (4-0 silk) were tied loosely around the nerve with approx 1 mm spacing. The incision was closed in layers and the wound treated with topical antibiotics.
Animals were habituated to wire test cages prior to the assessment of allodynia. Static allodynia was evaluated by application of von Frey hairs (Stoelting, Wood Dale, Ill., U.S.A.) in ascending order of force ([…], 0.4, 0.6, 1.0, 1.5 and 2.0 g) to the plantar surface of hind paws. Each von Frey hair was applied to the paw for a maximum of 6 seconds, or until a withdrawal response occurred. Once a withdrawal response to a von Frey hair was established, the paw was re-tested, starting with the filament below the one that produced a withdrawal, and subsequently with the remaining filaments in descending force sequence until no withdrawal occurred. Each animal had both hind paws tested in this manner. The lowest amount of force required to elicit a response was recorded as paw withdrawal threshold (PWT) in grams. […]
Following drug administration PWT were re-assessed for up to 4 h. The static allodynia data is expressed as median force (g) required to induce a paw withdrawal in 6-7 animals per group (vertical bars represent 1st and 3rd quartiles) *P<0.05, **P<0.01***P<0.005 (Mann Whitney U test) from vehicle treated group at each time point.
It was examined whether pregabalin produced an anti-allodynic action in both the knock-in and wild-type mice. […] Baseline (BL) paw withdrawal thresholds (PWT) to von Frey hairs were assessed. Following drug administration PWT were re-assessed for up to 4 h. The static allodynia data is expressed as median force (g) required to induce a paw withdrawal in 6-7 animals per group (vertical bars represent 1st and 3rd quartiles) *P<0.05, **P<0.01***P<0.005 (Mann Whitney U test) from vehicle treated group at each time point.

[2] = system: WT, HET and KI R217A mice and parent strains; assay: Vogel water-lick conflict; assay type: in vivo, mouse; conditions: for minimally effective dose (MED), Vogel: IP (doses tested in mg/kg); for anxiolytic-like effect / punished licking, Vogel: R217A knockins (homozygous)
Experimental: Two strains used to generate the mutant mice, C57BU6J (Jackson Laboratories), and 129S6/SvEV (Taconic Farms), were also evaluated. Albino or C57BL/6J-Tyr were also included in the experiments for comparison purposes. Male C57BL/6J (Jackson Laboratories), and 129S6/SvEV (Taconic Farms) mice were received at 8 weeks old in quantities sufficient for each study to be completed in one experiment. Parent strains were housed one week prior to testing. All animals were housed in a temperature and humidity controlled room under a 12L: 12D schedule (lights on @06:00 h). All mice were housed in isolators (3-5/cage) with the exception of C57BU6J mice that were housed on wire racks (12/cage).
On the side of each chamber (1.5 in. above the floor) a module optical lickometer was mounted. The lickometer was used to measure licking from a drink tube attached to a water bottle mounted on the exterior of the chamber. A photo beam was piped via glass rods across a gap at the end of the drink tube. The subject's tongue breaks the beam when it drinks from the tube and each lick was automatically recorded. […] The reduced chamber space limited the animal's activity and directed behavior towards the drink tube during a 10-minute session. The front and back of the test chamber was made of clear Plexiglas. The front door was covered to reduce distractions from inside the test room. The back of the test chamber faced a wall, away from the flow of traffic in the testing room, and remained uncovered to provide the opportunity for observations. Shock was delivered between the grid floor and the drink tube using a (Coulbourn) programmable universal shocker for a duration of one second, but terminated immediately when contact between the animal and drink tube was broken.
PROCEDURE: On day one, after 24 hours of water deprivation, experimental subjects were placed in the test chambers and allowed to drink unpunished for a 10-minute training session. Mice were required to complete a 100-150 lick criteria during the training session. Subjects that completed the training criteria prior to the end of the 10-minute session were removed so that drinking was restricted in all subjects to 25% of their total daily intake. […] Immediately after the day one session mice were returned to their home cages and deprived of water and food for an additional 24 hours. On test day two, mice were dosed by intraperitoneal (IP) injection with vehicle or test compound. After a 60 or 120-minute absorption period mice were placed into the test chambers for a 10-minute test session. During the test, shock was delivered on a fixed ratio (FR) 10 schedule. Therefore, after every 10th lick the subject received a mild shock. […] A low number of shock episodes accepted reflects anxiety-related behavior. Standard anxiolytic drugs produce effects that allow mice to overcome the behavioral inhibition and drink despite the shock. […] All data were analyzed using a one-way ANOVA/Dunn's Method.
DRUGS: Pregabalin was dissolved in physiological saline for all experiments. The positive control diazepam was suspended in 2% cremophor in physiological saline. All drugs were dosed in a volume of 10 mL/kg.
C57BL/6J mice were tested at 0.4 mA, C57BL/6J-Tyr mice were tested at 0.1 mA and 129S6/SvEV mice were tested at 0.6 mA. Each dose-response study included a no-shock vehicle control group directly compared to the concurrent vehicle punished-responding group to evaluate the suppression of drinking. […] For all experiments, sedation was noted when both symptoms of ataxia (unsteady gait) and a reduced response to handling were observed after dosing and described as mild, moderate or severe.
WT mice were tested at 0.1 mA, HET mice were tested at 0.4 mA and KI mice were tested at 0.7 InA. Each experiment included a no-shock vehicle control group for direct comparison to the concurrent vehicle punished-responding group to determine percent suppression of drinking.

SMILES: CC(C)C[C@H](CN)CC(=O)O [pregabalin]
- efficacy in CCI-induced allodynia ([1]; knock-in animals): failed to demonstrate any efficacy
- effect on CCI-induced punctate allodynia ([1]; knock-in mice): no effect
- efficacy in CCI-induced allodynia ([1]; wild type mice): typical efficacy
- effect on CCI-induced punctate allodynia ([1]; wild type mice): significant blockade
- minimally effective dose (MED), Vogel ([2]; 129S6/SvEv, shock 0.6 mA): 32
- minimally effective dose (MED), Vogel ([2]; C57BL/6J, shock 0.4 mA): 10
- minimally effective dose (MED), Vogel ([2]; C57 albino, shock 0.1 mA): 10
- minimally effective dose (MED), Vogel ([2]; Hets, shock 0.4 mA): 10
- increase in punished responding @ 100, Vogel ([2]; Knockins, dose 100): non-significant
- minimally effective dose (MED), Vogel ([2]; Knockins, shock 0.7 mA): inactive
- anxiolytic-like effect / punished licking, Vogel [2]: does not produce a statistically significant increase
- anxiolytic-like effect / punished licking, Vogel ([2]; listed as Pregabalin): Pregabalin did not produce a significant anxiolytic-like effect in R217A knockins, and no evidence was obtained relating phenotype to particular parent strain
- minimally effective dose (MED), Vogel ([2]; Wild Type, shock 0.1 mA): 32
